Series [1] has as its system paw plantar skin of rats. Kind of series: Rat models with hand-foot skin reaction, topical ointment (Example 22). The note with it: for Incidence rate (successful modeling rate for hand-foot skin reaction): modeling drug alone by gavage once daily, no ointment, SD rats, 30 days. Type of series: in vivo, SD rats. On the procedure: After adaptive feeding for one week, SD rats (with a body weight of approximately 200 g) were randomly divided into groups according to the body weight, with 12 rats in each group. Modeling drugs (including sorafenib, erlotinib, afatinib, and osimertinib) were respectively dissolved in a solution containing 5% of DMSO, 45% of PEG400, and 50% of H2O, and the modeling drugs were diluted to required concentrations and then administered once daily by gavage at doses shown in Table 3. After administration by gavage for 1 hour, 0.05 g of ointments containing different mass proportions of test compounds were evenly applied to left paws of the rats, a blank matrix ointment was applied to right paws of the rats to serve as a self-control, and no ointment was applied to the rats in a blank control group. After drug application, four limbs were continuously immobilized for 2 hours, then wiped with clean water to remove the residual drugs, removed from immobilization, and restored to free movement. The modeling drugs, the blank matrix ointment, and the ointments containing the test compounds were all administered once daily. After continuous administration for 30 days, the rats were euthanized, and paw plantar skin tissues were collected, fixed in 10% neutral formalin, […]. The ointments for the test compounds were prepared by mixing the compounds, white beeswax, white petrolatum, and light liquid paraffin in specific ratios (weight ratios of 3 ointments were respectively 1:18:58:23, 3:18:57:22, and 10:20:40:30). The blank matrix ointment was prepared by mixing white beeswax, white petrolatum, and light liquid paraffin in a specific ratio (weight ratio of 18:60:22).
Tissue staining: After dewaxing and rehydration, the paw plantar skin tissue sections of the above rats were stained in a hematoxylin solution for several minutes, cleaned, and placed in 1% acid alcohol for soaking until the sections faded to light blue-red. After cleaning with running water for 5 minutes, the sections were stained with eosin for 2-3 minutes, cleaned to remove excess dyes, dehydrated, then permeabilized by adding xylene for several minutes, and sealed and fixed with a neutral resin. The stratum corneum was observed under an optical microscope, and the thickness of the epidermal stratum corneum was measured using Dmetrix software.
Immunohistochemical staining: After dewaxing and hydration, the paw plantar skin tissue sections of the above rats were incubated with 3% H2O2 at room temperature for 30 minutes and blocked with 10% goat serum for 30 minutes after antigen retrieval. A KRT1 antibody (Abcam, ab93652) and a Loricrin antibody (Abcam, ab183646) were added dropwise, the sections were incubated overnight at 4° C., and an HRP secondary antibody (ZSGB-BIO, PV-6001) and a DAB kit (ZSG-BIO, ZLI9017) were added for color development. The sections were re-stained with hematoxylin, cleaned, and sealed and fixed with a neutral resin, and the expression amounts of KRT1 and Loricrin were observed under an optical microscope.
An incidence rate calculation method involves a proportion of animals in each group meeting the above criteria for determining successful modeling, that is, incidence rate=(number of successfully modeled rats/total number of rats in the group)*100%. […]

In series [2] the test system is HaCat cells. Kind of series: m6A methylation level of human HaCat keratinocytes, EpiQuik m6A RNA methylation quantification kit (Example 20). Type of series: cell-based. The note with it: HaCat cells, 24 hours. On the procedure:
HaCat cells were cultured in a DMEM culture medium containing 10% fetal bovine serum, 100 U/mL penicillin, and 100 μg/mL streptomycin. Culture dishes were placed in an incubator containing 5% CO2 for culture at 37° C. for 24 hours. An equal volume of DMSO was added in control group 1, 50 nM sorafenib, capecitabine, docetaxel, and osimertinib were respectively added in control groups A, B, C, and D, and 400 nM test compounds or nicotinamide were respectively added in sample groups A1-17, B1-17, C1-17, and D1-17 after the addition of 50 nM corresponding compounds. The cells were continuously cultured for 24 hours, washed with PBS, and then collected by high-speed centrifugation. Total RNA was extracted using a Trizol reagent (Sigma Aldrich), and RNA m6A methylation of a sample was quantitatively detected using an EpiQuik m6A RNA methylation quantification kit. The concentrations of positive control samples for a standard curve were 0.01 ng/μl, 0.02 ng/μl, 0.05 ng/μl, 0.1 ng/μl, 0.2 ng/μl, and 0.5 ng/μl. The absorbance at 450 nm was read using a microplate reader (Tecan GENios). A quantitative calculation formula for m6A is as follows:
m6A (ng)=(absorbance of sample well−absorbance of background well)/slope of standard curve m6A (%)=m6A (ng)/RNA amount of sample (ng)*100%.

The subject of series [3] is HaCaT keratinocytes. Kind of series: Inhibition of HBEGF-induced differentiation of HaCaT keratinocytes, marker mRNA by RT-PCR (Example 21). Type of series: cell-based, human. Particulars: 2.5 ng/mL human recombinant HBEGF protein + test compound, 24 hours. Here is the method:
Human HaCaT keratinocytes were cultured in a DMEM culture medium containing 10% fetal bovine serum, 100 U/mL penicillin, and 100 µg/mL streptomycin. The cells were seeded into a 96-well plate at a density of […] and placed in an incubator containing 5% carbon dioxide for culture at 37° C. for 24 hours. An equal volume of DMSO was added into control well 1, a 2.5 ng/mL human recombinant HBEGF protein (Abcam, ab205523) was added into control well 2, and a 2.5 ng/mL human recombinant HBEGF protein and corresponding concentrations of test compounds were added into sample wells. The cells were continuously cultured for 24 hours, washed with PBS, and then collected by high-speed centrifugation. Total RNA was extracted using a Trizol reagent (Sigma Aldrich). 1 μg of RNA was reverse-transcribed into cDNA using a cDNA reverse transcription kit (Transgene Biotech, AT311-03). 1.25 μL of a primer (with a primer sequence shown in Table 2), 10 μL of an iTag Universal SYBR Green supermix (Bio-Rad, 172-S125), and an appropriate amount of DEPC ultrapure water were added to formulate 20 μL of a reaction solution to perform an RT-PCR reaction. Upon completion of the reaction, the reaction solution was subjected to agarose gel electrophoresis to determine the mRNA expression amounts of keratinocyte differentiation markers KRT1, KRT10, Loricrin, and Involucrin.

The mark [4] stands for this setting: successfully modeled rats, modeling drug.
The mark [5] stands for this setting: 50 nM capecitabine + 400 nM test compound.
The mark [6] stands for this setting: 50 nM docetaxel + 400 nM test compound.
The mark [7] stands for this setting: 50 nM osimertinib + 400 nM test compound.
The mark [8] stands for this setting: 50 nM sorafenib + 400 nM test compound.

Regarding `CN(C)C/C=C/C(=O)Nc1cc2c(Nc3ccc(F)c(Cl)c3)ncnc2cc1O[C@H]1CCOC1` [Afatinib, afatinib, reference compound], the “Incidence rate (successful modeling rate for hand-foot skin reaction)” value is 8/12 (66.7%) in series [1] and 66.7% in series [1] (listed as afatinib). In addition, in series [1] (setting [4]), the “KRT1 and Loricrin in tissues (immunohistochemical staining)” value is recorded as “significantly increased”. Moreover, the “stratum corneum thickness of the paw plantar skin” value in series [1] (setting [4]) is “significantly higher than that of normal rats”.

For `NC(=O)C1CCCc2c1[nH]c1ccc(F)cc21` (centres unmarked) [Compound 1, 6-fluoro-2,3,4,9-tetrahydro-1H-carbazole-1-carboxamide], the “m6A fold change relative to control group 1” value in series [2] (setting [5]) is recorded as 3.0; in series [2] (setting [6]), 3.2; in series [2] (setting [7]) it was 3.4; in series [2] (setting [8]) it was 2.9.

For `NC(=O)[C@@H]1CCCc2c1[nH]c1ccc(Cl)cc21` [Compound 2a, (R)-6-chloro-2,3,4,9-tetrahydro-1H-carbazole-1-carboxamide], the “m6A fold change relative to control group 1” value in series [2] (setting [5]) amounted to 3.5; in series [2] (setting [6]), 5.6; in series [2] (setting [7]), 3.2; in series [2] (setting [8]) it was 3.4.

For `NC(=O)C1CCCc2c1[nH]c1ccc(Cl)c(F)c21` (centres unmarked) [Compound 3a, 6-chloro-5-fluoro-2,3,4,9-tetrahydro-1H-carbazole-1-carboxamide], the “m6A fold change relative to control group 1” value in series [2] (setting [5]) came out at 2.8; in series [2] (setting [6]), 4.2; in series [2] (setting [7]) it was 2.9; in series [2] (setting [8]) it was 3.3. In addition, in series [3], the “mRNA expression amounts of HaCaT differentiation markers KRT1, KRT10, Loricrin, and Involucrin” value is listed as “significantly inhibited”.

On to `NC(=O)C1CCCc2c1[nH]c1cc(F)c(Cl)cc21` (centres unmarked) [Compound 3b, 6-chloro-7-fluoro-2,3,4,9-tetrahydro-1H-carbazole-1-carboxamide], for which the “m6A fold change relative to control group 1” value in series [2] (setting [5]) was found to be 2.9; in series [2] (setting [6]) it was 3.2; in series [2] (setting [7]), 3.1; in series [2] (setting [8]), 3.3. Further, the “mRNA expression amounts of HaCaT differentiation markers KRT1, KRT10, Loricrin, and Involucrin” value in series [3] is on record as “significantly inhibited”.

Turning to `NC(=O)C1CCCc2c1[nH]c1cc(F)c(Cl)c(F)c21` (centres unmarked) [Compound 4, 6-chloro-5,7-difluoro-2,3,4,9-tetrahydro-1H-carbazole-1-carboxamide], the “m6A fold change relative to control group 1” value in series [2] (setting [5]) is reported as 3.2; in series [2] (setting [6]) it was 5.1; in series [2] (setting [7]), 4.2; in series [2] (setting [8]), 3.6.

Take `NC(=O)C1c2[nH]c3ccc(Cl)cc3c2C2CCC1C2` (centres unmarked) [Compound 5, 2-chloro-5,6,7,8,9,10-hexahydro-7,10-methanocyclohepta[b]indole-6-carboxamide]: the “m6A fold change relative to control group 1” value in series [2] (setting [5]) came out at 3.0; in series [2] (setting [6]), 2.9; in series [2] (setting [7]) it was 3.1; in series [2] (setting [8]), 2.4.

Take `NC(=O)C1c2[nH]c3ccc(Cl)cc3c2C2CCC1C2` [Compound 5b, (R)-2-chloro-5,6,7,8,9,10-hexahydro-7,10-methanocyclohepta[b]indole-6-carboxamide]: the “m6A fold change relative to control group 1” value in series [2] (setting [5]) was determined as 4.8; in series [2] (setting [6]) it was 4.8; in series [2] (setting [7]), 5.0; in series [2] (setting [8]), 3.8.

As for `CC1CCC(C(N)=O)c2[nH]c3ccc(Cl)cc3c21` (centres unmarked) [Compound 6, 6-chloro-4-methyl-2,3,4,9-tetrahydro-1H-carbazole-1-carboxamide], the “m6A fold change relative to control group 1” value in series [2] (setting [5]) came to 3.2; in series [2] (setting [6]), 5.1; in series [2] (setting [7]), 3.5; in series [2] (setting [8]), 3.4.

Turning to `NC(=O)C1CCC(F)c2c1[nH]c1ccc(Cl)cc21` (centres unmarked) [Compound 7, 6-chloro-4-fluoro-2,3,4,9-tetrahydro-1H-carbazole-1-carboxamide], the “m6A fold change relative to control group 1” value in series [2] (setting [5]) is reported as 3.9; in series [2] (setting [6]), 3.4; in series [2] (setting [7]) it was 2.9; in series [2] (setting [8]), 3.3.

Consider `CN1CCC(C(N)=O)c2[nH]c3ccc(Cl)cc3c21` (centres unmarked) [Compound 8, 8-chloro-1-methyl-2,3,4,5-tetrahydropyrido[3,2-b]indole-4-carboxamide], for which the “m6A fold change relative to control group 1” value amounted to 1.7 in series [2] (setting [5]), 3.0 in series [2] (setting [6]), 2.1 in series [2] (setting [7]) and 2.5 in series [2] (setting [8]).

As to `CN1CC[C@@H](C(N)=O)c2[nH]c3ccc(Cl)cc3c21` [Compound 8a, (R)-8-chloro-1-methyl-2,3,4,5-tetrahydropyrido[3,2-b]indole-4-carboxamide], the “m6A fold change relative to control group 1” value is recorded as 2.4 in series [2] (setting [5]), 4.8 in series [2] (setting [6]), 3.2 in series [2] (setting [7]) and 4.0 in series [2] (setting [8]).

As for `NC(=O)C1CCCc2c1[nH]c1cc(Nc3ccccc3)c(Cl)cc21` (centres unmarked) [Compound 9, 6-chloro-7-phenylamino-2,3,4,9-tetrahydro-1H-carbazole-1-carboxamide], the “m6A fold change relative to control group 1” value in series [2] (setting [5]) is listed as 3.9; in series [2] (setting [6]) it was 3.9; in series [2] (setting [7]), 4.0; in series [2] (setting [8]), 3.5.

`C#Cc1cccc(Nc2ncnc3cc(OCCOC)c(OCCOC)cc23)c1` [Erlotinib, erlotinib, reference compound]: in series [1] (rat, in vivo), the “KRT1 and Loricrin in tissues (immunohistochemical staining)” value is recorded as “significantly increased”; the “stratum corneum thickness of the paw plantar skin” value is reported as “significantly higher than that of normal rats”.

These data come from patent publication US20260226006A1, “INDOLE COMPOUND, PREPARATION METHOD THEREFOR AND USE THEREOF” (SUZHOU MERNA THERAPEUTICS CO. LTD, priority 2023, published 2026).
